From patent US20180000836A1, “Topical Treatment for Psoriasis” (priority 2016, published 2018) come the findings set out here.

A short description of this test: Topical application of the preparation to affected skin areas of plaque psoriasis patients. Particulars: twice daily, six to twelve weeks. The format is in vivo, human. An excerpt:
The topical application using the preparation herein for treatment of psoriasis according to the present invention, to accelerate healing, merely requires a once to twice daily application of the formed preparation to the affected areas for a period of six to twelve weeks. Generally, no special precautions are required other than the general precautions which accompany the topical application of topical steroids to the skin. Evaluation of the effectiveness of the preparation herein, is by simple examination of the patient and reduction of rash and other skin symptoms, and by changes in the amounts of itching present.
Topical application of the preparation for plaque psoriasis treatment herein to affected skin areas, on a twice, daily basis, generally produces beneficial effects on plaque psoriasis when applied over a period of time between six to twelve weeks. […] The clearing noted lasting for a prolonged period after treatment. […]
In a regimen for treatment of plaque psoriasis patients, the preparation herein is mixed and provided to the patient for topical application twice daily for a period of six to twelve weeks, depending on the individual patient results which may be evaluated after each four to six week period by an examination of the areas of body of the patient, and the reduction or total clearing of rash and other skin symptoms in those area. […]

The structures appear in SMILES notation.

For `CCC(=O)O[C@]1(C(=O)CCl)[C@@H](C)C[C@H]2[C@@H]3CCC4=CC(=O)C=C[C@]4(C)[C@@]3(F)[C@@H](O)C[C@@]21C` [clobetasol propionate], the “outcome of topical treatment of plaque psoriasis (clearing of affected areas), in words” value is “reduction or elimination of the plaque psoriasis”.
